This is an account of results in ChEMBL document CHEMBL4130360, “Synthesis of 2-imino and 2-hydrazono thiazolo[4,5-d]pyrimidines as corticotropin releasing factor (CRF) antagonists” (Eur J Med Chem, 2017).

Each structure is given as a SMILES string.

The test has as its target T1, Corticotropin-releasing factor receptor 1 (Homo sapiens, UniProt P34998).
T1 sequence (P34998 whole entry): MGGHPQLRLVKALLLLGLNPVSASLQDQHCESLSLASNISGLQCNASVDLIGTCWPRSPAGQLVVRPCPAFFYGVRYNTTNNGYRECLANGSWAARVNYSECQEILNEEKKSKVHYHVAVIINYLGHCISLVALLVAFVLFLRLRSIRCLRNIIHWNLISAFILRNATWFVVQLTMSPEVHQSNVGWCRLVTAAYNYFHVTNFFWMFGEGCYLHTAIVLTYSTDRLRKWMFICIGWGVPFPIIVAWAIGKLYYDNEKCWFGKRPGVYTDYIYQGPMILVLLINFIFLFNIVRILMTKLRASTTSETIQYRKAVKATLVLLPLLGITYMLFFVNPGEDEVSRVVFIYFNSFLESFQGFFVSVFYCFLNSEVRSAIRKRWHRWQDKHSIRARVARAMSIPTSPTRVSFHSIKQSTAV
Kind of test: Displacement of [125I]-Tyr0-sauvagine from human CRFR1 expressed in HEK293 cell membrane homogenates after 120 mins by gamma counting method. It is filed as cell membranes.
With `CCCCN(CC)c1nc(C)nc2c1sc(=N)n2-c1c(C)cc(C)cc1C`, the IC50 was 170 nM.

`CCN(CC)c1nc(C)nc2c1s/c(=N/N)n2-c1c(C)cc(C)cc1C`: the IC50 is 447 nM.

As for `CCN(CC)c1nc(C)nc2c1sc(=N)n2-c1c(C)cc(C)cc1C`, the concentration for half-maximal inhibition (IC50) was 891 nM.

The term IC50 denotes the point on the concentration scale where inhibition reaches its midpoint. Low values mean greater potency in that assay, high ones weaker potency in that assay.
